According to paper PMC4246094, “Exchange Factor EFA6R Requires C-terminal Targeting to the Plasma Membrane to Promote Cytoskeletal Rearrangement through the Activation of ADP-ribosylation Factor 6 (ARF6)” (The Journal of Biological Chemistry, 2014):

target: T1, EFA6R (GFP-EFA6R), isoform B (Homo sapiens, UniProt Q9NYI0); test: competition pulldown: displacement from biotinylated PI-avidin beads by soluble diC8 lipid, immunoblot densitometry; conditions: concentration blocking 50% of binding to PI 4,5-P2 beads (in the methods PI 3,4-P2 beads); cell lysate, pH 7.4, 150 mM NaCl, 0.5% Nonidet P-40, 4 °C; PH domain; read-out: EC50 (the source's name)
T1 construct: gene PSD3; full-length isoform B, N-terminal GFP tag (pEGFPC2), transiently expressed in COS7 cells, lysate used; endogenous protein runs at 56 kDa
T1 sequence (Q9NYI0 1-513 isoform Q9NYI0-3 limits assumed): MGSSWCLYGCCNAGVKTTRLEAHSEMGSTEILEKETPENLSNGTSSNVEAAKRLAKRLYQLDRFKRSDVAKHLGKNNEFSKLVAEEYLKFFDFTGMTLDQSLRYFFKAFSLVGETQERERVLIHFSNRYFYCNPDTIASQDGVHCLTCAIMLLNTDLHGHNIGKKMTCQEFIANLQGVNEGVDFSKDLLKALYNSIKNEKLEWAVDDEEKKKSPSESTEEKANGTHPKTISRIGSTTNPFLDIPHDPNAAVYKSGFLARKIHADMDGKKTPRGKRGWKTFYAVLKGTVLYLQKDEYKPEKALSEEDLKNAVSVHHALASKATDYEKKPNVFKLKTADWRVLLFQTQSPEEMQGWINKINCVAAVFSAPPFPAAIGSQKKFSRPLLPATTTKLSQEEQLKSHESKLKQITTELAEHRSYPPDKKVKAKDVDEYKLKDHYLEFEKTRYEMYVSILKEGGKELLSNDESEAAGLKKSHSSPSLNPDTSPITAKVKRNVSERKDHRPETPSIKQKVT

Row | SMILES | IC50 [µM]
1 | CCCCCCCC(=O)OC[C@H](COP(=O)(O)O[C@H]1[C@H](O)[C@@H](OP(=O)(O)O)[C@H](OP(=O)(O)O)[C@@H](OP(=O)(O)O)[C@H]1O)OC(=O)CCCCCCC [PI 3,4,5-trisphosphate] | > 10
2 | CCCCCCCC(=O)OC[C@H](COP(=O)(O)O[C@H]1[C@H](O)[C@@H](O)[C@H](OP(=O)(O)O)[C@@H](OP(=O)(O)O)[C@H]1O)OC(=O)CCCCCCC [PI 3,4-P2] | > 10
3 | CCCCCCCC(=O)OC[C@H](COP(=O)(O)O[C@@H]1[C@H](O)[C@H](OP(=O)(O)O)[C@@H](O)[C@H](O)[C@H]1O)OC(=O)CCCCCCC [PI 3-phosphate] | > 10
4 | CCCCCCCC(=O)OC[C@H](COP(=O)(O)O[C@@H]1[C@H](O)[C@H](O)[C@@H](OP(=O)(O)O)[C@H](OP(=O)(O)O)[C@H]1O)OC(=O)CCCCCCC [PI 4,5-P2] | 1.1
